We go through ten sequences from patent US11447533B2, “Antimicrobial and anticancer peptides and conjugates and compositions, methods, articles and kits relating thereto” (George Mason Research Foundation, Inc., priority 2018, dated 2022).

Entries after “also recorded” stand apart in the source; their conditions may differ.

Assay [1] deals with E. coli ATCC 25922. The assay can be described thus: Antimicrobial efficacy (resazurin virtual colony count). The assay is classed as cell-based, Escherichia coli. The following applies: for increase of EC50 in presence of albumin relative to EC50 in DPBS: DPBS + 4% (w/v) bovine serum albumin versus DPBS; for decrease of efficacy in DPBS relative to 10 mM Na-PO4: DPBS versus 10 mM Na-PO4; for decrease of efficacy under physiologically relevant ionic conditions: PBS versus low ionic conditions. A general note: Resazurin is reduced to fluorescent resorufin, in cell work by metabolically active cells.

For assay [2], the system named is E. coli ML35p outer membrane. The assay can be described thus: NPN assay, outer membrane perturbation. The following applies: 25 μM peptide, 25 μM PMB = 100%. The assay is classed as cell-based, Escherichia coli.
Where [3] appears, read: DPBS (with Ca++ and Mg++), pH 7.4.
[4] abbreviates: PBS (high / physiologically relevant ionic strength), pH 7.4.

For “RRWKRFFKRWK (SEQ ID NO: 15) [ATRA1-R3W2]”, the “antimicrobial efficacy, in words” value in assay [1] (setting [3]) was “more effective than either of its parent peptides”; in assay [1] (serum), “no antimicrobial property”. Further, in assay [1], the “increase of EC50 in presence of albumin relative to EC50 in DPBS” value was ~5 fold. For the same sequence, the “decrease of efficacy in DPBS relative to 10 mM Na-PO4” value in assay [1] is given as “approximately 3 fold”. Besides, the “membrane perturbation with respect to PMB” value (“membrane perturbation” for short) in assay [2] (DPBS) is recorded as “higher OM perturbation than ATRA1”; in assay [2] (DPBS, listed as ATRA-R3W2) it was ~65%; in assay [2] (PBS), “perturbed comparable to PMB”.

With KRWKKWWKKWK (SEQ ID NO: 14) [ATRA1-W4], the “antimicrobial efficacy, in words” value in assay [1] (setting [3]) is “most effective in DPBS”. The “membrane perturbation” value in assay [2] (DPBS) is recorded as “higher OM perturbation than ATRA1”.

Regarding “KRFKKFFKKLKNSVKKRAKKFFKKPK (SEQ ID NO: 53) [NA-CATH26, first 26 residues of NA-CATH]”, in assay [1], the “decrease of efficacy in DPBS relative to 10 mM Na-PO4” value is ~14 fold and the “decrease of efficacy under physiologically relevant ionic conditions” value is on record as “approximately 2 fold”. The “membrane perturbation” value in assay [2] (10 mM phosphate buffer) is given as “higher degree of membrane perturbations than PMB”. Moreover, the “membrane perturbation” value in assay [2] (PBS) is “perturbed outer membrane greater than PMB”.

With “KRFKKFFKKLKGGVIGVTFPF (SEQ ID NO: 38) [ATRA1-HYD, ATRA1 with hydrophobic tail of NA-CATH joined at the C-terminus by a short -GG- segment]”, in assay [1], the “increase of EC50 in presence of albumin relative to EC50 in DPBS” value was “approximately 2 fold” and the “decrease of efficacy in DPBS relative to 10 mM Na-PO4” value is recorded as ~10 fold. Besides, the “membrane perturbation” value in assay [2] (DPBS) is on record as ~75%.

Take RRFKRFFKRLK (SEQ ID NO: 9) [ATRA1-R3]: the “antimicrobial efficacy, in words” value in assay [1] (setting [3]) was “significantly reduced in DPBS relative to its activity in PBS”. The “membrane perturbation” value in assay [2] (DPBS) is recorded as “higher OM perturbation than ATRA1”.

On to “KRFKKFFKKLK (SEQ ID NO: 2) [ATRA1, first 11 residues of NA-CATH]”, for which the “antimicrobial efficacy, in words” value in assay [1] (setting [3]) is “lose activity in DPBS; also recorded: lost antimicrobial property”; in assay [1] (setting [4]), “effective in PBS”. The “membrane perturbation” value in assay [2] (DPBS) was “less than 50%”; in assay [2] (PBS), “perturbed comparable to PMB”.

For “RRWKRFFKRWKGGVIGVTFPF (SEQ ID NO: 50) [ATRA1-R3W2-HYD, ATRA1-R3W2 with hydrophobic tail of NA-CATH joined by -GG-]”, the “increase of EC50 in presence of albumin relative to EC50 in DPBS” value in assay [1] is recorded as “did not demonstrate significant changes in EC50 values”. Further, the “decrease of efficacy under physiologically relevant ionic conditions” value in assay [1] is given as ~5 fold. Besides, the entries for the “membrane perturbation” value in assay [2] (10 mM phosphate buffer), in assay [2] (DPBS) and in assay [2] (PBS) were 75%, ~100% and “comparable to PMB”, respectively.

As to KRAKKFFKKLK (SEQ ID NO: 4) [ATRA1-A], the “antimicrobial efficacy, in words” value in assay [1] (setting [3]) is “lose activity in DPBS”; in assay [1] (setting [4]) it was “retained some antimicrobial activity”. The “membrane perturbation” value in assay [2] (DPBS) was “less effective at perturbing the outer membrane than ATRA-1”.

Regarding RRFRRFFRRLR (SEQ ID NO: 10) [ATRA1-R6], the “antimicrobial efficacy, in words” value in assay [1] (setting [3]) is recorded as “highly effective in DPBS”. Also, the “membrane perturbation” value in assay [2] (DPBS) was “higher OM perturbation than ATRA1”; in assay [2] (PBS), “decreased slightly”.

In the case of KRAKKFFKRLK (SEQ ID NO: 6) [ATRA1-AR], in assay [1] (setting [4]), the “antimicrobial efficacy, in words” value is on record as “completely ineffective”. In addition, the “membrane perturbation” value in assay [2] (PBS) is reported as “decreased slightly”.
